Measurements published in patent publication US20230085307A1, “PYRIDAZINONE COMPOUND AND HERBICIDE” (NISSAN CHEMICAL CORPORATION, priority 2019, published 2023).

Assays:
[1] = system: lambsquarters; assay: Test Example 4: herbicidal effect by soil treatment (Table 19, symbol O); format: in vivo, lambsquarters (Chenopodium album); conditions: amount of applied herbicide 320 g/ha
Summary of the method: (§1)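 Pre-emergence style soil spray: seeds under ~1.5 cm sterilized diluvial soil received a uniform coat of emulsion diluted to the predetermined herbicide amount. Greenhouse 25–30° C; readout at week three on previously defined criteria.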

[2] = system: oval-leafed pondweed; assay: Test Example 1: herbicidal activity, application before weed generation under submerged conditions (Table 16, symbol C); format: in vivo, oval-leafed pondweed (Monochoria vaginalis); conditions: amount of applied herbicide 320 g/ha
Summary of the method: (§2)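 Emulsion formulation, water-diluted to set dose, was put onto the flooded surface (4 cm depth, alluvial soil) the same day weeds were sown and 2.5-leaf rice transplanted. After 3 weeks at 25-30 °C under glass, each species was rated 0 (≤5% kill) to 5 (≥90% kill).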

[3] = system: velvetleaf; assay: Test Example 5: herbicidal effect by foliage application, plastic box (Table 20, symbol M); format: in vivo, velvetleaf (Abutilon theophrasti); conditions: foliage application, 320 g/ha, three weeks after application
Summary of the method: (§3)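 Plants were sown into sterilized diluvial soil under about 1.5 cm cover and kept in a greenhouse at 25° C. to 30° C. Fourteen days on, foliage received an even spray of the diluted emulsion. Herbicidal or crop effect was judged three weeks afterwards.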

[4] = system: Japanese bulrush; assay: Test Example 2: herbicidal activity, application during weed generation under submerged conditions (Table 17, symbol B); format: in vivo, Japanese bulrush (Schoenoplectus juncoides); conditions: AAH 320 g/ha; application during weed generation, submerged conditions
Summary of the method: (§4)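 Steps: fill Wagner pots with alluvial soil; add water to give 4 cm depth; sow the species mixed; grow under glass at 25–30° C.; at 1–2 leaves apply water-diluted emulsion formulation to the water surface at a fixed herbicide amount; score after 3 weeks.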

[5] = system: velvetleaf; assay: Test Example 4: herbicidal effect by soil treatment (Table 19, symbol M); format: in vivo, velvetleaf (Abutilon theophrasti); conditions: amount of applied herbicide 320 g/ha
Summary of the method: as §1

[6] = system: lambsquarters; assay: Test Example 5: herbicidal effect by foliage application, plastic box (Table 20, symbol O); format: in vivo, lambsquarters (Chenopodium album); conditions: foliage application, 320 g/ha, three weeks after application
Summary of the method: as §3

[7] = system: barnyard grass; assay: Test Example 5: herbicidal effect by foliage application, plastic box (Table 20, symbol H); format: in vivo, barnyard grass (Echinochloa crus-galli); conditions: foliage application, 320 g/ha, three weeks after application
Summary of the method: as §3

[8] = system: southern crabgrass; assay: Test Example 4: herbicidal effect by soil treatment (Table 19, symbol F); format: in vivo, southern crabgrass (Digitaria ciliaris); conditions: amount of applied herbicide 320 g/ha
Summary of the method: as §1

[9] = system: late watergrass; assay: Test Example 2: herbicidal activity, application during weed generation under submerged conditions (Table 17, symbol A); format: in vivo, late watergrass (Echinochloa oryzicola); conditions: AAH 320 g/ha; application during weed generation, submerged conditions
Summary of the method: as §4

[10] = system: oval-leafed pondweed; assay: Test Example 2: herbicidal activity, application during weed generation under submerged conditions (Table 17, symbol C); format: in vivo, oval-leafed pondweed (Monochoria vaginalis); conditions: AAH 320 g/ha; application during weed generation, submerged conditions
Summary of the method: as §4

[11] = system: green foxtail; assay: Test Example 5: herbicidal effect by foliage application, plastic box (Table 20, symbol G); format: in vivo, green foxtail (Setaria viridis); conditions: foliage application, 320 g/ha, three weeks after application
Summary of the method: as §3

[12] = system: redroot pigweed; assay: Test Example 4: herbicidal effect by soil treatment (Table 19, symbol N); format: in vivo, redroot pigweed (Amaranthus retroflexus); conditions: amount of applied herbicide 320 g/ha
Summary of the method: as §1

[13] = system: southern crabgrass; assay: Test Example 5: herbicidal effect by foliage application, plastic box (Table 20, symbol F); format: in vivo, southern crabgrass (Digitaria ciliaris); conditions: foliage application, 320 g/ha, three weeks after application
Summary of the method: as §3

[14] = system: barnyard grass; assay: Test Example 4: herbicidal effect by soil treatment (Table 19, symbol H); format: in vivo, barnyard grass (Echinochloa crus-galli); conditions: amount of applied herbicide 320 g/ha
Summary of the method: as §1

[15] = system: rice flat sedge; assay: Test Example 3: herbicidal effect by foliage application, Wagner pot (Table 18, symbol E); format: in vivo, rice flat sedge (Cyperus iria)
Summary of the method: (§5)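 Plants were sown in alluvial soil held under 0.1–0.5 cm standing water and grown 14 days in a greenhouse at 25–30 °C. An emulsifiable formulation, water-diluted to the set dose, was then sprayed onto the foliage, and effects were scored three weeks later using previously defined criteria.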

[16] = system: Japanese bulrush; assay: Test Example 1: herbicidal activity, application before weed generation under submerged conditions (Table 16, symbol B); format: in vivo, Japanese bulrush (Schoenoplectus juncoides); conditions: amount of applied herbicide 320 g/ha
Summary of the method: as §2

[17] = system: redroot pigweed; assay: Test Example 5: herbicidal effect by foliage application, plastic box (Table 20, symbol N); format: in vivo, redroot pigweed (Amaranthus retroflexus); conditions: foliage application, 320 g/ha, three weeks after application
Summary of the method: as §3

[18] = system: late watergrass; assay: Test Example 1: herbicidal activity, application before weed generation under submerged conditions (Table 16, symbol A); format: in vivo, late watergrass (Echinochloa oryzicola); conditions: amount of applied herbicide 320 g/ha
Summary of the method: as §2

[19] = system: green foxtail; assay: Test Example 4: herbicidal effect by soil treatment (Table 19, symbol G); format: in vivo, green foxtail (Setaria viridis); conditions: amount of applied herbicide 320 g/ha
Summary of the method: as §1

[20] = system: Chinese sprangletop; assay: Test Example 3: herbicidal effect by foliage application, Wagner pot (Table 18, symbol D); format: in vivo, chinese sprangletop (Leptochloa chinensis); conditions: for herbicidal effect on D: Chinese sprangletop: amount of applied herbicide 320 g/ha
Summary of the method: as §5

[21] = system: barnyard grass; assay: Test Example 3: herbicidal effect by foliage application, Wagner pot (Table 18, symbol H); format: in vivo, barnyard grass (Echinochloa crus-galli); conditions: for herbicidal effect on H: barnyard grass: amount of applied herbicide 320 g/ha
Summary of the method: as §5

[22] = system: wild oat; assay: Test Example 5: herbicidal effect by foliage application, plastic box (Table 20, symbol I); format: in vivo, wild oat (Avena fatua); conditions: foliage application, 320 g/ha, three weeks after application
Summary of the method: as §3

[23] = system: Italian ryegrass; assay: Test Example 5: herbicidal effect by foliage application, plastic box (Table 20, symbol K); format: in vivo, Italian ryegrass (Lolium multiflorum); conditions: foliage application, 320 g/ha, three weeks after application
Summary of the method: as §3

[24] = system: blackgrass; assay: Test Example 5: herbicidal effect by foliage application, plastic box (Table 20, symbol J); format: in vivo, blackgrass (Alopecurus myosuroides); conditions: foliage application, 320 g/ha, three weeks after application
Summary of the method: as §3

[25] = system: windgrass; assay: Test Example 5: herbicidal effect by foliage application, plastic box (Table 20, symbol L); format: in vivo, windgrass (Apera spica-venti); conditions: foliage application, 320 g/ha, three weeks after application
Summary of the method: as §3

[26] = system: persian speedwell; assay: Test Example 5: herbicidal effect by foliage application, plastic box (Table 20, symbol R); format: in vivo, Persian speedwell (Veronica persica); conditions: foliage application, 320 g/ha, three weeks after application
Summary of the method: as §3

SMILES | herbicidal effect, O: lambsquarters [1] | Herbicidal effect, C: oval-leafed pondweed [2] | M: velvetleaf, herbicidal effect grade [3] | herbicidal effect rating, B: Japanese bulrush [4] | herbicidal effect, M: velvetleaf [5] | O: lambsquarters, herbicidal effect grade [6] | H: barnyard grass, herbicidal effect grade [7] | herbicidal effect, F: southern crabgrass [8] | herbicidal effect rating, A: late watergrass [9] | herbicidal effect rating, C: oval-leafed pondweed [10] | G: green foxtail, herbicidal effect grade [11] | herbicidal effect, N: redroot pigweed [12] | F: southern crabgrass, herbicidal effect grade [13] | herbicidal effect, H: barnyard grass [14] | Herbicidal effect, B: Japanese bulrush [16] | N: redroot pigweed, herbicidal effect grade [17] | Herbicidal effect, A: late watergrass [18] | herbicidal effect, G: green foxtail [19] | herbicidal effect on D: Chinese sprangletop [20] | herbicidal effect on H: barnyard grass [21] | other results
CC(COc1ccc(-c2sc3ccc(F)cc3c2-c2c(O)c(C)nn(C)c2=O)cc1)=NO [2-453] | 5 (Herbicidal rate of 90% or more (almost completely withered)) | 3 (Herbicidal rate of 40% or more and less than 70%) | 5 (Herbicidal rate of 90% or more (almost completely withered)) | 4 (Herbicidal rate of 70% or more and less than 90%) | 5 (Herbicidal rate of 90% or more (almost completely withered)) | 5 (Herbicidal rate of 90% or more (almost completely withered)) | 5 (Herbicidal rate of 90% or more (almost completely withered)) | 5 (Herbicidal rate of 90% or more (almost completely withered)) | 3 (Herbicidal rate of 40% or more and less than 70%) | 4 (Herbicidal rate of 70% or more and less than 90%) | 5 (Herbicidal rate of 90% or more (almost completely withered)) | 5 (Herbicidal rate of 90% or more (almost completely withered)) | 5 (Herbicidal rate of 90% or more (almost completely withered)) | 5 (Herbicidal rate of 90% or more (almost completely withered)) | 3 (Herbicidal rate of 40% or more and less than 70%) | 5 (Herbicidal rate of 90% or more (almost completely withered)) | 3 (Herbicidal rate of 40% or more and less than 70%) | 5 (Herbicidal rate of 90% or more (almost completely withered)) | 3 (Herbicidal rate of 40% or more and less than 70%) | 5 (Herbicidal rate of 90% or more (almost completely withered)) | herbicidal effect on E: rice flat sedge ([15]; amount of applied herbicide 320 g/ha): 2 (Herbicidal rate of 20% or more and less than 40%)
COCCOc1ccc(-c2sc3ccc(F)cc3c2-c2c(O)cnn(C)c2=O)cc1 [2-441] | 4 (Herbicidal rate of 70% or more and less than 90%) | 3 (Herbicidal rate of 40% or more and less than 70%) | 5 (Herbicidal rate of 90% or more (almost completely withered)) | 0 (Herbicidal rate of 5% or less (almost no effect)) | 1 (Herbicidal rate of 5% or more and less than 20%) | 5 (Herbicidal rate of 90% or more (almost completely withered)) | 5 (Herbicidal rate of 90% or more (almost completely withered)) | 0 (Herbicidal rate of 5% or less (almost no effect)) | 3 (Herbicidal rate of 40% or more and less than 70%) | 0 (Herbicidal rate of 5% or less (almost no effect)) | 5 (Herbicidal rate of 90% or more (almost completely withered)) | 4 (Herbicidal rate of 70% or more and less than 90%) | 4 (Herbicidal rate of 70% or more and less than 90%) | 0 (Herbicidal rate of 5% or less (almost no effect)) | 3 (Herbicidal rate of 40% or more and less than 70%) | 5 (Herbicidal rate of 90% or more (almost completely withered)) | 3 (Herbicidal rate of 40% or more and less than 70%) | 0 (Herbicidal rate of 5% or less (almost no effect)) | 0 (Herbicidal rate of 5% or less (almost no effect)) | 5 (Herbicidal rate of 90% or more (almost completely withered)) | 
COCCOCc1ccc(-c2sc3ccc(F)cc3c2-c2c(O)c(C)nn(C)c2=O)cc1 [2-445] | 4 (Herbicidal rate of 70% or more and less than 90%) | 0 (Herbicidal rate of 5% or less (almost no effect)) | 5 (Herbicidal rate of 90% or more (almost completely withered)) | 0 (Herbicidal rate of 5% or less (almost no effect)) | 3 (Herbicidal rate of 40% or more and less than 70%) | 5 (Herbicidal rate of 90% or more (almost completely withered)) | 5 (Herbicidal rate of 90% or more (almost completely withered)) | 5 (Herbicidal rate of 90% or more (almost completely withered)) | 3 (Herbicidal rate of 40% or more and less than 70%) | 0 (Herbicidal rate of 5% or less (almost no effect)) | 5 (Herbicidal rate of 90% or more (almost completely withered)) | 5 (Herbicidal rate of 90% or more (almost completely withered)) | 5 (Herbicidal rate of 90% or more (almost completely withered)) | 4 (Herbicidal rate of 70% or more and less than 90%) | 0 (Herbicidal rate of 5% or less (almost no effect)) | 5 (Herbicidal rate of 90% or more (almost completely withered)) | 3 (Herbicidal rate of 40% or more and less than 70%) | 5 (Herbicidal rate of 90% or more (almost completely withered)) |  |  | 
CCCC(=O)Oc1c(C)nn(C)c(=O)c1-c1c(-c2ccc(OC)cc2)sc2cc(C)c(C)cc12 [5-093] |  | 0 (Herbicidal rate of 5% or less (almost no effect)) |  | 0 (Herbicidal rate of 5% or less (almost no effect)) |  |  |  |  | 2 (Herbicidal rate of 20% or more and less than 40%) | 0 (Herbicidal rate of 5% or less (almost no effect)) |  |  |  |  | 0 (Herbicidal rate of 5% or less (almost no effect)) |  | 2 (Herbicidal rate of 20% or more and less than 40%) |  |  |  | herbicidal effect on wild oat (I) [22]: 0 (Herbicidal rate of 5% or less (almost no effect)); herbicidal effect on velvetleaf (M) [3]: 1 (Herbicidal rate of 5% or more and less than 20%); herbicidal effect on Italian ryegrass (K) [23]: 0 (Herbicidal rate of 5% or less (almost no effect)); herbicidal effect on lambsquarters (O) [6]: 3 (Herbicidal rate of 40% or more and less than 70%); herbicidal effect on barnyard grass (H) [7]: 0 (Herbicidal rate of 5% or less (almost no effect)); herbicidal effect on blackgrass (J) [24]: 0 (Herbicidal rate of 5% or less (almost no effect)); herbicidal effect on windgrass (L) [25]: 0 (Herbicidal rate of 5% or less (almost no effect)); herbicidal effect on green foxtail (G) [11]: 0 (Herbicidal rate of 5% or less (almost no effect)); herbicidal effect on southern crabgrass (F) [13]: 0 (Herbicidal rate of 5% or less (almost no effect)); herbicidal effect on rice flat sedge (E) ([15]; 320 g/ha): 2 (Herbicidal rate of 20% or more and less than 40%); herbicidal effect on persian speedwell (R) [26]: 0 (Herbicidal rate of 5% or less (almost no effect)); herbicidal effect on Chinese sprangletop (D) ([20]; 320 g/ha): 2 (Herbicidal rate of 20% or more and less than 40%); herbicidal effect on barnyard grass (H) ([21]; 320 g/ha): 1 (Herbicidal rate of 5% or more and less than 20%)
